Here are results for one molecule from US11453667B2, “Pyridone-pyrimidine derivative acting as KRASG12C mutein inhibitor” (MEDSHINE DISCOVERY INC., priority 2018, dated 2022).

SMILES strings stand for the structures. Read-outs that look alike come from different tables or passages of the source.

Data set [1] deals with human non-small cell lung cancer NCI-H358. The data set is described as follows: In vivo drug efficacy test (4): subcutaneous xenograft tumor model. Also noted: species or system BALB/c nude mice. The note with it: 15 mg/kg. The procedure: (§1) To evaluate the in vivo efficacy of the test compounds in a subcutaneous xenograft tumor model of human non-small cell lung cancer NCI-H358.
BALB/c nude mice, female, 6-8 weeks old, weighing 18-20 grams. A total of 40 were required. They were provided by Shanghai Lingchang Experimental Animal Co., Ltd ( ? ? ). NCI-H358 tumor cells were resuspended in PBS to prepare a cell suspension with a density of 5×10^7/mL, which was inoculated subcutaneously on the right back of each mouse (0.1 mL, 5×10^6/mouse) to wait for tumor growth. When the average tumor volume reached about 166 mm^3, randomized grouping and administration were performed, and the administration dose was shown in Table 8. The diameter of the tumor was measured with vernier calipers twice a week.
The formula for calculating the tumor volume is: V=0.5a×b^2, wherein a and b represent the long and short diameters of the tumor, respectively. The tumor suppressive effect of the compounds was evaluated by TGI (%). TGI (%) reflects the tumor growth inhibition rate. Calculation of TGI (%): TGI (%)=[(1−(average tumor volume at the end of administration in a treatment group−average tumor volume at the beginning of administration in the treatment group))/(average tumor volume at the end of treatment in the solvent control group−average tumor volume at the beginning of treatment in the solvent control group)]×100%.

The next data set deals with KRAS G12C mutation. The note with it: reported in Cell, 2018, 172, 578-589; cited from earlier work.
For data set [2] the following is noted: reported in Cell, 2018, 172, 578-589; cited from earlier work.
For data set [3], the system named is human pancreatic cancer x-MIA-PaCa2 cell. The data set is described as follows: In vivo drug efficacy test (3): subcutaneous xenograft tumor model. On the set-up: species or system NU/NU mice. The conditions noted are these: 50 mg/kg. The procedure: To evaluate the in vivo efficacy of the test compounds in a subcutaneous xenograft tumor model of human pancreatic cancer x-MIA-PaCa2 cell.
NU/NU mice, female, 6-8 weeks old, weighing 17-20 grams. A total of 100 were required (additional 30% of animals were inoculated). They were provided by Beijing Vital River Science and Technology Co., Ltd. Each mouse was subcutaneously inoculated with 0.2 mL (10×10^6) of x-MIA-PaCa2 cells (plus matrigel, with the volume ratio being 1:1) on the right back. When the average tumor volume reached about 150 mm^3, grouping and administration were performed, and the administration dose was shown in Table 7. The diameter of the tumor was measured with vernier calipers twice a week. The formula for calculating the tumor volume is: V=0.5a×b^2, wherein a and b represent the long and short diameters of the tumor, respectively. The tumor suppressive effect of the compounds was evaluated by TGI (%). TGI (%) reflects the tumor growth inhibition rate. Calculation of TGI (%): TGI (%)=[(1−(average tumor volume at the end of administration in a treatment group−average tumor volume at the beginning of administration in the treatment group))/(average tumor volume at the end of treatment in the solvent control group−average tumor volume at the beginning of treatment in the solvent control group)]×100%.

A short description of data set [4]: Rat pharmacokinetic evaluation experiment. It is filed as in vivo. The note with it: plasma, male SD rats; for AUC: read-out: AUC (exposure). An excerpt:
To determine the drug concentrations in plasma at different times after intravenous and intragastric administration of the test compounds to the rats by using the LC/MS/MS method and using male SD rats as the test animals; To study the pharmacokinetic behaviors of the test compounds in rats and to evaluate the pharmacokinetic characteristics thereof.
Experiment scheme: 10 healthy adult male SD rats were used as experimental animals and divided into 4 groups according to the principle of similar body weight, with 2 in each group of the group IV (two groups) and 3 in each group of the group PO (two groups). The animals were purchased from Beijing Vital River Laboratory Animal Technology Co., Ltd.
Group IV: an appropriate amount of samples were weighed; an appropriate amount of DMSO, PEG400 and water were added successively thereto according to the volume ratio of 10:60:30; and stirring was performed under sonication to reach a clear state of 1.5 mg/mL.
Group PO: an appropriate amount of samples were weighed; an appropriate amount of DMSO, PEG400 and water were added successively thereto according to the volume ratio of 10:60:30; and stirring was performed under sonication to reach a clear state of 1.0 mg/mL.
After fasting overnight, each rat in the group IV was administered intravenously with a volume of 2 mL/kg and a dose of 3 mg/kg; each rat in the group PO was administered intragastrically with a volume of 10 mL/kg and a dose of 10 mg/kg.
After each of the male SD rats in the group IV was administrated with the test compounds, 200 ul of blood samples were collected at 0.0833, 0.25, 0.5, 1, 2, 4, 6, 8 and 24 hours, and were placed in a commercial anticoagulation tube pre-loaded with EDTA-K2. After each rat in the group PO was administrated with the test compounds, 200 ul of blood samples were collected at 0.25, 0.5, 1, 2, 4, 6, 8 and 24 hours respectively, and were placed in a commercial anticoagulation tube pre-loaded with EDTA-K2. The test tube was centrifuged for 15 minutes to separate the plasma and stored at −60° C. 2 hours after administration, the animals can be fed. The content of the test compounds in plasma was determined by the LC/MS/MS method after intravenous and intragastric administration to the rats. The linear range of the method was from 2.00 to 6000 nM; plasma samples were analyzed after treatment of precipitating proteins by acetonitrile.
Note: Cl: clearance rate; Vd: volume of distribution; AUC: exposure; T1/2: half-life; Cmax: maximum compound concentration after oral administration; Tmax: time to reach Cmax; F: bioavailability.

For data set [5], the system named is pancreatic cancer MIA-Paca2 cell. The note with it: reported in Cell, 2018, 172, 578-589; cited from earlier work.
Data set [6] has as its system human non-small cell lung cancer NCI-H358. The data set is described as follows: In vivo drug efficacy test (2): subcutaneous xenograft tumor model. The note with it: 100 mg/kg (0-6 days) + 50 mg/kg (7-20 days). On the set-up: species or system BALB/c nude mice. The method, then: as §1
BALB/c nude mice, female, 6-8 weeks old, weighing 18-21 grams. A total of 100 were required. They were provided by Shanghai Lingchang Experimental Animal Co., Ltd ( ? ? ). NCI-H358 tumor cells were resuspended in PBS to prepare 0.1 mL (5×10^6) of cell suspension, which was inoculated subcutaneously on the right back of each mouse (5×10^6/mouse) to wait for tumor growth. When the average tumor volume reached about 150-200 mm^3, randomized grouping and administration were performed, and the administration dose was shown in Table 6. The diameter of the tumor was measured with vernier calipers twice a week. The formula for calculating the tumor volume is: V=0.5a×b^2, wherein a and b represent the long and short diameters of the tumor, respectively. The tumor suppressive effect of the compounds was evaluated by TGI (%). TGI (%) reflects the tumor growth inhibition rate. Calculation of TGI (%): TGI (%)=[(1−(average tumor volume at the end of administration in a treatment group−average tumor volume at the beginning of administration in the treatment group))/(average tumor volume at the end of treatment in the solvent control group−average tumor volume at the beginning of treatment in the solvent control group)]×100%.

In general, TGI refers to how far tumour growth fell short of that in controls. In general, AUC refers to concentration integrated over time. What is called clearance is a measure of how efficiently the substance is removed, as volume per time. In general, Vd refers to a proportionality between amount in the body and measured concentration, not a real space. The Cmax is the maximum level reached in the sampled fluid or tissue. By Tmax is commonly meant the time at which the peak concentration occurs. What is called bioavailability is dose-corrected exposure relative to a reference, in per cent. On to `C=CC(=O)N1CCN(c2ncnc3c(F)c(-c4c(O)cccc4F)c(Cl)cc23)CC1` [ARS-1620, reference compound], for which, in data set [1], the “Tumor volume (day 27)” value is 492 mm^3. Moreover, the TGI is given as 51.78% in data set [1] (day 27), 50.36% in data set [3] (day 14) and 90.82% in data set [6] (day 20). Besides, the “cellular anti-proliferative activity at the cellular level” value with KRAS G12C mutation is reported as “nM-level”. Besides, the metabolic stability result in data set [2] is reported as “good metabolic stability”. Moreover, the “Tumor volume (day 14)” value in data set [3] is listed as 907 mm^3. Further, the area under the curve (AUC) in data set [4] (IV 3 mg/kg) is 3.21 µM·h; in data set [4] (PO 10 mg/kg) it was 2.32 µM·h. In data set [4] (IV 3 mg/kg, read-out: Cl (clearance rate)), the clearance came out at 36.3 mL/min/kg. Besides, the half-life in data set [4] (IV 3 mg/kg, read-out: T1/2 (half-life) (converted)) was 27.7 min. For the same molecule, the Vd in data set [4] (IV 3 mg/kg, read-out: Vd (volume of distribution)) came out at 1.08 L/kg. Besides, the Cmax in data set [4] (PO 10 mg/kg) came out at 1240 nM. The Tmax in data set [4] (PO 10 mg/kg) turned out to be 20 min. The bioavailability in data set [4] (PO 10 mg/kg, read-out: F (bioavailability)) is 22%. For the same molecule, the “tumor growth in subcutaneous xenograft tumor model” value in data set [5] is “effectively inhibit tumor growth”. Moreover, the “Tumor volume (day 20)” value in data set [6] amounted to 216 mm^3.
